Several values for one entry are separate records, joined by “and”; a condition that tells them apart may be missing. Equal entries are not always repeated.
Key:
[1] = test system: C. novyi-NT therapy-induced toxicity in mice bearing large subcutaneous CT26 tumors; experiment: C. novyi-NT therapy of large subcutaneous CT26 tumors (therapy-induced toxicity); type: in vivo, mouse (BALB/c); settings: CT26 tumor-bearing mice injected with parental C. novyi-NT spores, with the indicated agent
Method: ANP concentrations in the supernatant of ANP-C. novyi-NT culture and in mouse plasma were measured by an Elisa kit from Ray Biotech (EIAR-ANP-1) that recognizes both human and mouse ANP. ANP in the supernatant of ANP-C. novyi-NT culture were shown biological activities as described elsewhere (Lofton et al., 1990 Biochem. Biophys. Res. Comm., 172:793-9). Briefly, bacterial supernatants were applied to cultured bovine aortic endothelial cells (BAOEC, Cell Applications Inc.) for 3 minutes. cGMP concentrations were then measured in BAOEC lysates by the Direct cGMP Elisa Kit from Enzo following the manufacture's instruction.
The colon cancer cell line CT26 was injected subcutaneously into the right flank of six to eight week old female Balb/C mice as described elsewhere (Qiao et al., 2011 Oncotarget, 2:59-68). Tumor sizes were measured with a caliper and calculated as ½*L*W*H as described elsewhere (Tomayko et al., 1989 Can. Chemother. Pharmacol., 24:148-54). When tumors reached 600-900 mm^3 after about two weeks, 12×10^6 spores of C. novyi-NT or ANP-C. novyi-NT at 3×10^6/μl were injected intratumorally into 4 central parts of the tumor with a 32 G Hamilton syringe needle. The bacteria typical germinated in the tumors within 24 hours, turning them necrotic. Hydration of the mice was supported by daily subcutaneous injections of […] saline. Human ANP (Sigma) was dissolved in saline, loaded in mini-osmotic pumps (ALZET) with a release rate of 12 μg/day and implanted subcutaneously in the back of mice 12 hours before the spore injection. Pumps loaded with saline served as controls. Metyrosine was dissolved in PBS and injected IP at 60 mg/kg/day for three days before the C. novyi injection to deplete catecholamines in storage. Two hours after the spore injection, 60 mg/kg of metyrosine was injected intraperitoneally (IP). For each of the next three days, IP injections of metyrosine at 30 mg/kg were administered. Control groups were injected with PBS at the same time points.
Blood samples were collected into tubes containing 5 mM EDTA and 4 mM sodium metabisulfite after puncturing the facial vein or (terminally) by cardiac puncture. Subsequently, the samples were centrifuged and the plasmas were stored at −80° C. prior to analysis. Catecholamines (dopamine, norepinephrine and epinephrine) were measured using the 3-CAT Research ELISA kit from Labor Diagnostika Nord GmbH/Rocky Mountain Diagnostics. Cytokines were measured using Luminex assays based on Millipore Mouse and Human Cytokine/Chemokine panels.
ANP concentrations in the supernatant of ANP-C. novyi-642 NT culture and in mouse plasma were measured with an Elisa kit from Ray Biotech (EIAR-ANP-1) that recognizes both human and mouse ANP. […] Briefly, bacterial supernatants were applied to cultured bovine aortic endothelial cells (BAOEC, Cell Applications Inc.) for 3 minutes. cGMP concentrations were then measured in BAOEC lysates by the Direct cGMP Elisa Kit from Enzo following the manufacture's instruction.
The colon cancer cell line CT26 was injected subcutaneously into the right flank of six to eight weeks old female Balb/C mice as described elsewhere (see, e.g., Qiao et al. 2011 Oncotarget 2:59-68). Tumor sizes were measured with a caliper and calculated as ½*L*W*H as described elsewhere (see, e.g., Tomayko et al. 1989 Cancer Chemother Pharmacol 24:148-154). When tumors reached 600-900 mm^3 after about two weeks, 12×10^6 spores of C. novyi-NT or ANP-C. novyi-NT at 3×10^6/μl were injected intratumorally into 4 central parts of the tumor with a 32 G Hamilton syringe needle. The bacteria typical germinated in the tumors within 24 hours, turning them necrotic. Hydration of the mice was supported by daily subcutaneous injections of 500 μl saline. Human ANP (Sigma) was dissolved in saline, loaded in mini-osmotic pumps (ALZET) with a release rate of 12 μg/day and implanted subcutaneously in the back of mice 12 hours before the spore injection. Pumps loaded with saline served as controls. […]

LPS-injected BALB/c mice = type: in vivo, mouse (BALB/c); settings: for disease course (mortality, catecholamines, IL-6, TNF-α, MIP-2, KC) versus LPS only: catecholamine by subcutaneous osmotic pump plus sublethal dose of LPS; for mortality: LPS-treated mice, adrenoceptor blockers (α1, α2, β1, β2)
Method: LPS from Escherichia coli 0111:B4 was formulated as a 10 mg/ml solution in water and stored in −80° C. LPS was injected intraperitoneally at a dose of 3.5 mg/kg. […] Human ANP (Sigma) was dissolved in saline, loaded in mini-osmotic pumps (ALZET) with a release rate of 12 μg/day and implanted subcutaneously in the back of mice 12 hours before the LPS injection. Mice implanted with pumps loaded with saline served as controls. […] […] The control groups were injected with PBS. […] Hydration of mice was supported by daily subcutaneous injection of 0.5 ml saline.
LPS from Escherichia coli 0111:B4 was formulated as a 10 mg/ml solution in water and stored in −80° C. In Balb/C mice, LPS was injected intraperitoneally at a lethal dose of 3.5 mg/kg. […] In experiments with catecholamine pumps, a sublethal dose with 15-35% death rate was optimized in Balb/C mice. In TH+/+ and TH^ΔLysM mice with C57BL/6 background, a lethal dose was optimized at 5 mg/kg. Human ANP (Sigma) was dissolved in saline, loaded in mini-osmotic pumps (ALZET) with a release rate of 12 μg/day and implanted subcutaneously in the back of mice 12 hours before the LPS injection. Mice implanted with pumps loaded with saline served as controls. Metyrosine was freshly dissolved in PBS and injected IP at the indicated doses for three days prior to the LPS treatment. One hour before the LPS injection, metyrosine was injected into the lower abdomen contralateral to the side of LPS injection. The control groups were injected with PBS. For the following 3 days, metyrosine was injected IP at reduced indicated doses. Hydration of mice was supported by daily subcutaneous injection of 0.5 ml saline.

[2] = incubation in media for 24 hours at 37° C.
[3] = test system: polymicrobial peritoneal sepsis induced by CLP; experiment: Cecal ligation and puncture (CLP) sepsis; type: in vivo, mouse (C57BL/6); settings: antibiotic alone, from 20 hours after CLP
Method: (§1) Cecal ligation and puncture (CLP) was performed as described elsewhere (Rittirsch et al., 2009 Nature Protocols, 4:31-6). Briefly, six-to-eight week old female C57BL/6 mice were anesthetized and following abdominal incision, the cecum was ligated at about 14 the distance from the luminal entry to its tip. The ligated cecum was punctured through and through with a 22 G needle at ½ and ¾ the distance from the luminal entry to its tip. A small amount of the cecal content was gently pushed out of the four openings into the peritoneum. Subsequently, the abdominal muscles were sutured and the skin was closed with two staples. Five hundred microliters of saline were immediately injected subcutaneously to the mice. For the groups treated with antibiotics, imipenem (Sigma) was injected subcutaneously at 25 mg/kg starting from 20 hours after CLP, with a schedule of twice a day on day one and once a day thereafter for 10 days. Human ANP (Sigma) was dissolved in saline, loaded in mini-osmotic pumps (ALZET) with a release rate of 12 μg/day and implanted subcutaneously in the back of mice 12 hours before the CLP, with pumps loaded with saline serving as controls. Metyrosine was freshly dissolved in PBS and injected IP at 60 mg/kg/day for three days before the CLP. Twenty minutes before the CLP, metyrosine was injected at 60 mg/kg IP into the right side. The control groups were injected with PBS. For the following 4 days, metyrosine was injected at 30 mg/kg/day IP into the right side. Hydration of mice was supported by daily subcutaneous injection of 0.5 ml saline.
as §1, with “CLP” for “Cecal ligation and puncture (CLP)”, “(see, e.g., Rittirsch” for “(Rittirsch”, “2008 Rev Immunol 8:776-787).” for “2009 Nature Protocols, 4:31-6).”, “6-8 weeks” for “six-to-eight week”, “¼” for “14”, “days.” for “days. Human ANP (Sigma) was dissolved in saline, loaded in mini-osmotic pumps (ALZET) with a release rate of 12 μg/day and implanted subcutaneously in the back of mice 12 hours before the CLP, with pumps loaded with saline serving as controls.”

[4] = test system: co-culture of hCART19 and Raji cells; experiment: In vitro co-culture of Raji and hCART19 cells; type: cell-based, human; settings: co-culture stimulated with epinephrine 15 ng/ml; CHX 10 μg/ml
Source text: Human CD19scFv-CD28-4-1BB-CD3ζ CAR-T cells (PM-CAR1003) were purchased from Promab Biotechnologies and maintained less than 7 days in AIM-V medium (GIBCO) supplemented with 300 IU/ml of hIL2 (Peprotech), 5% FBS and antibiotics (Car-T medium).

In the case of `Cc1ccc2nc(NCCN)c3ncc(C)n3c2c1` [BMS-345541], the “effect on survival (words)” value [1] is reported as “no significant improvement in survival” and the “effect on survival (words)” value ([1]; listed as BMS345541) is reported as “did not improve survival”.
In the case of `NCCc1ccc(O)c(O)c1` [dopamine], the “disease course (mortality, catecholamines, IL-6, TNF-α, MIP-2, KC) versus LPS only” value (LPS-injected BALB/c mice) is reported as “absent”.
In the case of `NC[C@H](O)c1ccc(O)c(O)c1` [norepinephrine], the “disease course (mortality, catecholamines, IL-6, TNF-α, MIP-2, KC) versus LPS only” value (LPS-injected BALB/c mice) is reported as “less pronounced”.
In the case of `Cc1ncc([N+](=O)[O-])n1CCO` [metronidazole], the “effect on survival (words)” value [1] is reported as “did not protect animals from sepsis”.
With `COc1cc2nc(N3CCN(C(=O)c4ccco4)CC3)nc(N)c2cc1OC` [prazosin] the “production of catecholamines and cytokines” value (LPS-injected BALB/c mice; 24 hours after LPS, α1 blockade) was “suppressed the production of catecholamines and cytokines” and the mortality (LPS-injected BALB/c mice) was “substantially reduced mortality”.
For `CNC[C@H](O)c1ccc(O)c(O)c1` [epinephrine, (−)-epinephrine], the “disease course (mortality, catecholamines, IL-6, TNF-α, MIP-2, KC) versus LPS only” value (LPS-injected BALB/c mice) was “earlier onset and exacerbated disease course”, the animal survival (LPS-injected BALB/c mice; mouse, in vivo) was “no effect on animal survival” and the cytokine release (LPS-injected BALB/c mice; mouse, in vivo) was “moderately stimulate cytokine release”. For the same compound, the stability in media [2] was “all detectable epinephrine was degraded”.
For `COCCc1ccc(OCC(O)CNC(C)C)cc1` (stereo not shown) [metoprolol], the mortality (LPS-injected BALB/c mice) was “did not reduce mortality”.
With `C[C@@H](O)[C@H]1C(=O)N2C(C(=O)O)=C(SCCN=CN)C[C@H]12` [imipenem] the “mice that died after CLP” value [3] was 88% and > 90%.
For `C[C@@H]1C[C@@H]([C@H](O)CC2CC(=O)NC(=O)C2)C(=O)[C@@H](C)C1` [CHX, Cycloheximide], the “increase of catecholamines and cytokines (TNF-α, MIP-1α, IFN-γ, GM-CSF)” value [4] was “greatly suppressed”.
In the case of `Cc1ccc(OCC(O)C(C)NC(C)C)c2c1CCC2` (stereo not shown) [ICI 118551], the mortality (LPS-injected BALB/c mice) is reported as “did not reduce mortality”.
In the case of `COC1(C2=NCCN2)COc2ccccc2O1` (stereo not shown) [RX 821002], the mortality (LPS-injected BALB/c mice) is reported as “did not reduce mortality”.

Source: US12564622B2, “Preventing cytokine release syndrome” (priority 2017, dated 2026)
